Assay results from patent US12440496B2, “Natriuretic peptide receptor a agonists useful for the treatment of cardiometabolic diseases, kidney disease and diabetes” (Merck Sharp & Dohme LLC, priority 2019, dated 2025).

Biological target: T1, hNPRA (Homo sapiens, UniProt P16066)
T1 construct: expressed in transfected cells
T1 sequence (P16066 33-1061): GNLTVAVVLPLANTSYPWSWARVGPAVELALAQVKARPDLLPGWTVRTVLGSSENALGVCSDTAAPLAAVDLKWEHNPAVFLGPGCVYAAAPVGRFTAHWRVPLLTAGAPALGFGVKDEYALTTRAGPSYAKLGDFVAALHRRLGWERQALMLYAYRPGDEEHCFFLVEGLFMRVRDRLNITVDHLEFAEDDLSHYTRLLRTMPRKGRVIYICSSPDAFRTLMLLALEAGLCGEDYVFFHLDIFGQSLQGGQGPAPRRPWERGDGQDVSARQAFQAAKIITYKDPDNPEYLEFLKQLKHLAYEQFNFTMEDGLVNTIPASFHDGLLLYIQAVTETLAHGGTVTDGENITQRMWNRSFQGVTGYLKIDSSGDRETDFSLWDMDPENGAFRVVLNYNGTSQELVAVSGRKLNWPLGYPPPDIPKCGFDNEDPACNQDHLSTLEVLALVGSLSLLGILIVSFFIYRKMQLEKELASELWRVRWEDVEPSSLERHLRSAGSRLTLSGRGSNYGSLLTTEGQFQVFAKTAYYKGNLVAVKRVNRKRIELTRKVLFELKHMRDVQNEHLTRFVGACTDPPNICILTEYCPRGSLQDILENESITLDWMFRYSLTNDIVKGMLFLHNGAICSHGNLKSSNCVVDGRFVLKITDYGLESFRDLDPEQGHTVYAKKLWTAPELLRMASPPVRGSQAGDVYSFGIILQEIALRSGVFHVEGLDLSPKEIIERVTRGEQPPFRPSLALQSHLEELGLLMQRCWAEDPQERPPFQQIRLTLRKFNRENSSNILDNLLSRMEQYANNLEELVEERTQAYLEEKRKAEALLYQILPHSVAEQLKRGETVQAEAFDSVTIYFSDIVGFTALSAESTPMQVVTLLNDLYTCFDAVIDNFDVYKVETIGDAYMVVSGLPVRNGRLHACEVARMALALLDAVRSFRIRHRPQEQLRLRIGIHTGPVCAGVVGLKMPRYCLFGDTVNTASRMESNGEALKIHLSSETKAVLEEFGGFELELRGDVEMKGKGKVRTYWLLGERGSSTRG
Assay: NPRA Functional Cell Assay (cGMP HTRF, NPRA HEK JumpIn stable cells)
Type: cell-based
Settings: cGMP production, 1 hour at 37° C., 10-point dose response
In short: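 cGMP HTRF read-out after 1 hour compound treatment at 37° C. of human NPRA-expressing HEK JumpIn cells, 1500 cells/well, in buffer with phosphodiesterase inhibitors IBMX and RO20 (100 uM each). Signal converted to [cGMP] by calibration curve; EC50s fitted by 4-parameter logistic; 50 nM h-ANP as positive response.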

| EC50 | SMILES |
| --- | --- |
| 277 nM | CC(C)(C)[C@H]1CCc2nc3sc(C(=O)N[C@H](CCN4CCC(O)CC4)c4ccc(N5CC(=O)NC5=O)nc4)nc3cc2C1 [Example 220, (S)-7-(tert-butyl)-N-((R)-1-(6-(2,4-dioxoimidazolidin-1-yl)pyridin-3-yl)-3-(4-hydroxypiperidin-1-yl)propyl)-5,6,7,8-tetrahydrothiazolo[5,4-b]quinoline-2-carboxamide] |
| 754 nM | CN1CC(NC(=O)c2cccc([C@@H](CCN3CCC(C(=O)O)C3)NC(=O)c3nc4cc5c(nc4s3)CC[C@H](C(C)(C)C)C5)c2)C1 (mixture of isomers) [Example 112, rac-(3R)-1-[rac-(3R)-3-[3-[(1-methylazetidin-1-ium-3-yl)carbamoyl]phenyl]-3-[rac-(7S)-7-tert-butyl-5,6,7,8-tetrahydrothiazolo[5,4-b]quinoline-2-carbonyl]amino]propyl]pyrrolidine-3-carboxylic acid; 2,2,2-trifluoroacetate] |
| 242 nM | CC1([C@H]2CCc3nc4sc(C(=O)N[C@H](CCN5CCC(O)CC5)c5ccc(N6CC(=O)NC6=O)nc5)nc4cc3C2)CC1 [Example 218, (S)-N-((R)-1-(6-(2,4-dioxoimidazolidin-1-yl)pyridin-3-yl)-3-(4-hydroxypiperidin-1-yl)propyl)-7-(1-methylcyclopropyl)-5,6,7,8-tetrahydrothiazolo[5,4-b]quinoline-2-carboxamide] |
| 614 nM | CC(C)(C)[C@H]1CCc2nc3sc(C(=O)N[C@H](CCN4CCC(O)CC4)c4ccc(-c5c[nH]nc5C#N)cc4)nc3cc2C1 (racemic) [Example 166, rac-(7S)-7-tert-butyl-N-[rac-(1R)-1-[4-(3-cyano-1H-pyrazol-4-yl)phenyl]-3-(4-hydroxypiperidin-1-ium-1-yl)propyl]-5,6,7,8-tetrahydrothiazolo[5,4-b]quinoline-2-carboxamide; 2,2,2-trifluoroacetate] |
| 1790 nM | CC(C)(C)[C@H]1CCc2nc3sc(C(=O)N[C@H](CCN4CCC(c5ccccn5)CC4)c4cccc(NS(C)(=O)=O)c4)cc3cc2C1 (racemic) [Example 23, ammonium;methylsulfonyl-[3-[rac-(1R)-3-[4-(2-pyridyl)-1-piperidyl]-1-[[rac-(6S)-6-tert-butyl-5,6,7,8-tetrahydrothieno[2,3-b]quinoline-2carbonyl]amino]propyl]phenyl]azanide] |
| 2200 nM | O=C(N[C@H](CCN1CCC(O)CC1)c1ccc(N2CCOC2=O)cc1)c1nc2cc3c(nc2s1)CC[C@H](C1(C(F)(F)F)CC1)C3 [Example 232, (S)-N-((R)-3-(4-hydroxypiperidin-1-yl)-1-(4-(2-oxooxazolidin-3-yl)phenyl)propyl)-7-(1-(trifluoromethyl)cyclopropyl)-5,6,7,8-tetrahydrothiazolo[5,4-b]quinoline-2-carboxamide] |
| 1950 nM | CC(C)(C)[C@H]1CCc2nc3sc(C(=O)N[C@H](CCN4CCC(O)CC4)c4cccc(C(=O)N5CCO[C@H]6CNC[C@H]65)c4)nc3cc2C1 (racemic) [Example 161, rac-(7S)-7-tert-butyl-N-[rac-(1R)-3-(4-hydroxy-1-piperidyl)-1-[3-[rac-(4aR,7aS)-3,4a,5,6,7,7a-hexahydro-2H-pyrrolo[3,4-b][1,4]oxazine-4-carbonyl]phenyl]propyl]-5,6,7,8-tetrahydrothiazolo[5,4-b]quinoline-2-carboxamide] |
| 1300 nM | CC1(O)CN(CC[C@@H](NC(=O)c2cc3cc4c(nc3s2)CC[C@H](C(C)(C)C)C4)c2ccc(-c3ccc(=O)[nH]c3)cc2)C1 (racemic) [Example 65, rac-(6S)-6-tert-butyl-N-[rac-(1R)-3-(3-hydroxy-3-methyl-azetidin-1-ium-1-yl)-1-[4-(6-oxo-1H-pyridin-3-yl)phenyl]propyl]-5,6,7,8-tetrahydrothieno[2,3-b]quinoline-2-carboxamide;formate] |
| 120 nM | CC1([C@H]2CCc3nc4sc(C(=O)N[C@H](CCN5CCC(O)CC5)c5ccc(-c6c[nH]c(=O)c(F)c6)cc5)nc4cc3C2)CC1 [Example 234, (S)-N-((R)-1-(4-(5-fluoro-6-oxo-1,6-dihydropyridin-3-yl)phenyl)-3-(4-hydroxypiperidin-1-yl)propyl)-7-(1-methylcyclopropyl)-5,6,7,8-tetrahydrothiazolo[5,4-b]quinoline-2-carboxamide] |
| 986 nM | CC(C)CN(C)CC[C@@H](NC(=O)c1nc2cc3c(nc2s1)CC[C@H](C(C)(C)C)C3)c1ccc(NS(=O)(=O)N(C)C)nc1 (racemic) [Example 212, isobutyl-methyl-[rac-(3R)-3-[6-(dimethylsulfamoylamino)-3-pyridyl]-3-[rac-(7S)-7-tert-butyl-5,6,7,8-tetrahydrothiazolo[5,4-b]quinoline-2-carbonyl]amino]propyl]ammonium; 2,2,2-trifluoroacetate] |
| 1610 nM | CN(C)S(=O)(=O)Nc1ccc([C@@H](CCN2CCNC(=O)CC2)NC(=O)c2nc3cc4c(nc3s2)CC[C@H](C(C)(C)C)C4)cn1 (racemic) [Example 215, rac-(7S)-7-tert-butyl-N-[rac-(1R)-1-[6-(dimethylsulfamoylamino)-3-pyridyl]-3-(5-oxo-1,4-diazepan-1-ium-1-yl)propyl]-5,6,7,8-tetrahydrothiazolo[5,4-b]quinoline-2-carboxamide; 2,2,2-trifluoroacetate] |
| 140 nM | CC(C)(C)[C@H]1CCc2nc3sc(C(=O)N[C@H](CCN4CCC(O)CC4)c4ccc(-c5c[nH]c(=O)c(F)c5)cc4)nc3cc2C1 [Example 236, (S)-7-(tert-butyl)-N-((R)-1-(4-(5-fluoro-6-oxo-1,6-dihydropyridin-3-yl)phenyl)-3-(4-hydroxypiperidin-1-yl)propyl)-5,6,7,8-tetrahydrothiazolo[5,4-b]quinoline-2-carboxamide] |
| 753 nM | Cn1nccc1-c1ccc([C@@H](CCN2CCCCC2)NC(=O)c2cc3cc4c(nc3s2)CC[C@H](C(C)(C)C)C4)cc1 (racemic) [Example 4, rac-(6S)-6-tert-butyl-N-[rac-(1R)-1-[4-(2-methylpyrazol-3-yl)phenyl]-3-(1-piperidyl)propyl]-5,6,7,8-tetrahydrothieno[2,3-b]quinoline-2-carboxamide] |
| 655 nM | CC(C)(C)[C@H]1CCc2nc3sc(C(=O)N[C@H](CCN[C@H]4C[C@@H](O)[C@@H](O)C4)c4ccc(-c5ccc(=O)[nH]c5)cc4)cc3cc2C1 (racemic) [Example 39, [rac-(3R,4S)-3,4-dihydroxycyclopentyl]-[rac-(3R)-3-[4-(6-oxo-1H-pyridin-3-yl)phenyl]-3-[[rac-(6S)-6-tert-butyl-5,6,7,8-tetrahydrothieno[2,3-b]quinoline-2-carbonyl]amino]propyl] ammonium;formate] |
| 666 nM | CC(C)(C)[C@H]1CCc2nc3sc(C(=O)N[C@H](CCN4CCC(O)CC4)c4ccc(-c5c[nH]nc5C(F)(F)F)cc4)nc3cc2C1 (racemic) [Example 167, rac-(7S)-7-tert-butyl-N-[rac-(1R)-3-(4-hydroxypiperidin-1-ium-1-yl)-1-[4-[3-(trifluoromethyl)-1H-pyrazol-4-yl]phenyl]propyl]-5,6,7,8-tetrahydrothiazolo[5,4-b]quinoline-2-carboxamide; 2,2,2-trifluoroacetate] |
| 176 nM | CC(C)(C)[C@H]1CCc2nc3sc(C(=O)N[C@H](CCN4CCC(O)CC4)c4cccc(C(=O)N[C@H]5CNC[C@@H]5O)c4)nc3cc2C1 (racemic) [Example 137, rac-(7S)-7-tert-butyl-N-[rac-(1R)-3-(4-hydroxy-1-piperidyl)-1-[3-[[rac-(3S,4S)-4-hydroxypyrrolidin-3-yl]carbamoyl]phenyl]propyl]-5,6,7,8-tetrahydrothiazolo[5,4-b]quinoline-2-carboxamide] |
| 915 nM | CC(C)(C)[C@H]1CCc2nc3sc(C(=O)N[C@H](CCN4CCC(c5nn[nH]n5)C4)c4ccc(-c5ccc(=O)[nH]c5)cc4)cc3cc2C1 (mixture of isomers) [Example 58, rac-(6S)-6-tert-butyl-N-[rac-(1R)-1-[4-(6-oxo-1H-pyridin-3-yl)phenyl]-3-[3-(2H-tetrazol-5-yl)pyrrolidin-1-ium-1-yl]propyl]-5,6,7,8-tetrahydrothieno[2,3-b]quinoline-2-carboxamide;formate] |
| 632 nM | CC(C)(C)[C@H]1CCc2nc3sc(C(=O)N[C@H](CCN4CCC(O)CC4)c4ccccc4)cc3cc2C1 [Example 250, (6S)-6-tert-butyl-N-[(1R)-3-(4-hydroxypiperidin-1-yl)-1-phenylpropyl]-5,6,7,8-tetrahydrothieno[2,3-b]quinoline-2-carboxamide] |
